Data: ChEMBL document CHEMBL3098103, “High-throughput docking for the identification of new influenza A virus polymerase inhibitors targeting the PA-PB1 protein-protein interaction” (Bioorg Med Chem Lett, 2014)

Experiments:
[1] = Inhibition of Influenza A virus H5N1 C-terminal PA interaction to N-terminal PB1 (1 to 25) expressed in human 293T cells by ELISA; assay type: cell-based
[2] = Cytotoxicity against MDCK cells; assay type: cell-based, Canis lupus familiaris; details: dog

Row | Structure (SMILES) | IC50 [1] [µM] | CC50 [2] [µM]
1 | Cc1ccc(-c2cc(-c3ccccc3)nc(S[C@H](C)C(=O)Nc3cccc(Cl)c3)c2C#N)cc1 | 125 | 100
2 | N#Cc1c(-c2cccc(Br)c2)cc(-c2ccccc2)nc1SCC(=O)Nc1ccc(Br)cc1 | 35 | 100
3 | Cc1ccc(-c2cc(-c3ccccc3)nc(SCC(=O)Nc3cccc(Cl)c3)c2C#N)cc1 | 180 | 100
4 | CCOC(=O)c1ccc(NC(=O)CSc2nc(-c3ccccc3)cc(-c3ccc(OCc4ccccc4)c(OCC)c3)c2C#N)cc1 | 30 | 100
5 | Cc1ccc(-c2cc(-c3ccccc3)nc(SCC(=O)Nc3cccc(C)c3)c2C#N)cc1 | 80 | 100
6 | COc1ccc(-c2cc(-c3ccccc3)nc(SCC(=O)Nc3ccccc3)c2C#N)cc1OC | 125 | 100
7 | Cc1ccc(-c2cc(-c3ccccc3)nc(S[C@@H](C)C(=O)Nc3ccc(C)c(C)c3)c2C#N)cc1 | 180 | 100
